Drawing on PubChem BioAssay AID328 (DTP/NCI, 2004), this text covers T/C for eleven compounds.

“And” between values parts separate entries of the source, which are not always exact repeats. Equal entries are not always repeated. Inconclusive results and toxic doses are left out.

The subject of this assay is BDF1 mice, P388 leukemia ip, median survival T/C. The assay can be described thus: NCI In Vivo Anticancer Drug Screen. Data for tumor model P388 Leukemia (intraperitoneal) in B6D2F1 (BDF1) mice. The settings on record: endpoint: median survival time, higher = longer survival. In outline: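 Antitumour effect was judged in vivo: survival in drug-treated mice, normalised to that of vehicle-dosed controls, gives the reported T/C.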

[1] abbreviates: dose: 1.0 mg/kg/injection, schedule: Q01DX009 (ip), vehicle: saline.
Setting [2] is: dose: 25.0 mg/kg/injection, schedule: Q01DX009 (ip), vehicle: saline.
[3] abbreviates: dose: 50.0 mg/kg/injection, schedule: Q01DX009 (ip), vehicle: saline.
Setting [4] is: dose: 100.0 mg/kg/injection, schedule: Q01DX009 (ip), vehicle: saline.
Setting [5] is: dose: 200.0 mg/kg/injection, schedule: Q01DX009 (ip), vehicle: saline.
Setting [6] is: dose: 100.0 mg/kg/injection, schedule: Q04DX003 (ip), vehicle: saline with Tween-80.
The mark [7] stands for this setting: dose: 200.0 mg/kg/injection, schedule: Q04DX003 (ip), vehicle: saline with Tween-80.
[8] abbreviates: dose: 400.0 mg/kg/injection, schedule: Q04DX003 (ip), vehicle: saline with Tween-80.
[9] abbreviates: dose: 50.0 mg/kg/injection, schedule: Q04DX003 (ip), vehicle: saline with Tween-80.
[10] abbreviates: dose: 50.0 mg/kg/injection, schedule: Q01DX009 (ip), vehicle: saline with Tween-80.

Regarding `N[C@@H](Cc1ccc(N(CCCl)CCCl)cc1)C(=O)O`, the T/C reads like this: (dose: 0.5 mg/kg/injection, schedule: Q01DX009 (ip), vehicle: saline) 167 % of control; (dose: 0.5 mg/kg/injection, schedule: Q01DX010 (ip), vehicle: saline) 227 % of control; under setting [1], 245 % of control and 188 % of control; (dose: 1.0 mg/kg/injection, schedule: Q01DX010 (ip), vehicle: saline) 277 % of control; (dose: 2.0 mg/kg/injection, schedule: Q01DX009 (ip), vehicle: saline) 237 % of control and 254 % of control; (dose: 2.0 mg/kg/injection, schedule: Q01DX010 (ip), vehicle: saline) 300 % of control. For the same compound, the T/C runs as follows: (dose: 2.5 mg/kg/injection, schedule: Q04DX003 (ip), vehicle: water) 205 % of control; (dose: 3.6 mg/kg/injection, schedule: Q01DX001 (ip), vehicle: saline) 150 % of control and 181 % of control; (dose: 4.0 mg/kg/injection, schedule: Q01DX009 (ip), vehicle: saline) 113 % of control; (dose: 4.0 mg/kg/injection, schedule: Q01DX010 (ip), vehicle: saline) 113 % of control; (dose: 4.0 mg/kg/injection, schedule: Q04DX003 (ip), vehicle: Klucel (hydroxypropylcellulose) (HPC)) 236 % of control; (dose: 6.0 mg/kg/injection, schedule: Q01DX001 (ip), vehicle: saline) 167 % of control and 172 % of control. In addition, the T/C is 227 % of control and 245 % of control (dose: 10.0 mg/kg/injection, schedule: Q01DX001 (ip), vehicle: Klucel (hydroxypropylcellulose) (HPC)); 240 % of control and 279 % of control (dose: 12.5 mg/kg/injection, schedule: Q01DX001 (ip), vehicle: Klucel (hydroxypropylcellulose) (HPC)); 295 % of control and 298 % of control (dose: 15.0 mg/kg/injection, schedule: Q01DX001 (ip), vehicle: Klucel (hydroxypropylcellulose) (HPC)); 286 % of control and 318 % of control (dose: 17.5 mg/kg/injection, schedule: Q01DX001 (ip), vehicle: Klucel (hydroxypropylcellulose) (HPC)); 254 % of control and 259 % of control (dose: 20.0 mg/kg/injection, schedule: Q01DX001 (ip), vehicle: Klucel (hydroxypropylcellulose) (HPC)); 91 % of control and 96 % of control (dose: 40.0 mg/kg/injection, schedule: Q04DX003 (ip), vehicle: water).

For the compound `O=C(O)C(OP(=O)(O)O)C(=O)O`, the T/C reads like this: under setting [2], 110 % of control; under setting [3], 95 % of control; under setting [4], 94 % of control; under setting [5], 100 % of control.

Take `C[C@]1(O)CC[C@H]2[C@@H]3CCC4=CC(=O)CC[C@]4(C)[C@@]3(Cl)[C@@H](O)C[C@@]21C`: the T/C was 100 % of control (dose: 100.0 mg/kg/injection, schedule: Q01DX009 (ip), vehicle: saline sonified); 95 % of control under setting [6]; 100 % of control (dose: 200.0 mg/kg/injection, schedule: Q01DX009 (ip), vehicle: saline sonified); 100 % of control under setting [7]; 100 % of control (dose: 400.0 mg/kg/injection, schedule: Q01DX009 (ip), vehicle: saline sonified); 100 % of control under setting [8].

Turning to `O=C(C[n+]1ccc2ccccc2c1)c1ccccc1`, the T/C runs as follows: (dose: 12.5 mg/kg/injection, schedule: Q04DX003 (ip), vehicle: saline with Tween-80) 100 % of control; (dose: 25.0 mg/kg/injection, schedule: Q04DX003 (ip), vehicle: saline with Tween-80) 100 % of control; under setting [9], 100 % of control.

`O=c1[nH]cc(F)c(=O)[nH]1.[Tl]`: the T/C was 117 % of control (dose: 6.25 mg/kg/injection, schedule: Q01DX009 (ip), vehicle: Klucel (hydroxypropylcellulose) (HPC)); 102 % of control and 110 % of control (dose: 12.5 mg/kg/injection, schedule: Q01DX009 (ip), vehicle: Klucel (hydroxypropylcellulose) (HPC)); 87 % of control (dose: 25.0 mg/kg/injection, schedule: Q01DX009 (ip), vehicle: Klucel (hydroxypropylcellulose) (HPC)); 91 % of control (dose: 100.0 mg/kg/injection, schedule: Q01DX009 (ip), vehicle: Klucel (hydroxypropylcellulose) (HPC)).

As for `CC(=O)[C@H]1[C@H](O)C[C@H]2[C@@H]3CCC4=CC(=O)CC[C@]4(C)[C@@]3(F)[C@@H](O)C[C@@]21C`, the T/C was 100 % of control (dose: 100.0 mg/kg/injection, schedule: Q04DX003 (ip), vehicle: saline); 113 % of control (dose: 200.0 mg/kg/injection, schedule: Q04DX003 (ip), vehicle: saline); 113 % of control (dose: 400.0 mg/kg/injection, schedule: Q04DX003 (ip), vehicle: saline).

For `COc1ccc(C(C(N)=O)N2CCCCC2)cc1` (stereo unspecified), the T/C is, setting by setting: (dose: 100.0 mg/kg/injection, schedule: Q01DX009 (ip), vehicle: other) 115 % of control; (dose: 100.0 mg/kg/injection, schedule: Q04DX003 (ip), vehicle: Klucel (hydroxypropylcellulose) (HPC)) 100 % of control; (dose: 200.0 mg/kg/injection, schedule: Q01DX009 (ip), vehicle: other) 105 % of control; (dose: 200.0 mg/kg/injection, schedule: Q04DX003 (ip), vehicle: Klucel (hydroxypropylcellulose) (HPC)) 90 % of control; (dose: 400.0 mg/kg/injection, schedule: Q01DX009 (ip), vehicle: other) 100 % of control; (dose: 400.0 mg/kg/injection, schedule: Q04DX003 (ip), vehicle: Klucel (hydroxypropylcellulose) (HPC)) 104 % of control.

In the case of `NC(=S)N/N=C\c1nnc(N)s1`, the T/C under setting [10] is 90 % of control.

For `NC(=O)c1nccnc1Cl`, the T/C was 110 % of control under setting [10]; 101 % of control under setting [9]; 98 % of control (dose: 100.0 mg/kg/injection, schedule: Q01DX009 (ip), vehicle: saline with Tween-80); 102 % of control and 111 % of control under setting [6]; 91 % of control (dose: 200.0 mg/kg/injection, schedule: Q01DX009 (ip), vehicle: saline with Tween-80); 88 % of control and 104 % of control under setting [7]. The T/C under setting [8] is 92 % of control and 101 % of control.

As for `CCOC(=O)C(NC(C)=O)(C(=O)OCC)C(C)C(O)c1ccc(OC)c(OC)c1O` (stereo unspecified), the T/C by setting is: under setting [2], 100 % of control; under setting [3], 100 % of control; under setting [4], 109 % of control; under setting [5], 122 % of control; (dose: 400.0 mg/kg/injection, schedule: Q01DX009 (ip), vehicle: saline) 100 % of control.

Regarding `NC(=O)c1[nH]nc(C2OC(CO)C(O)C2O)c1O` (stereo unspecified), the T/C runs as follows: (dose: 0.25 mg/kg/injection, schedule: Q01DX009 (ip), vehicle: saline) 116 % of control; (dose: 0.5 mg/kg/injection, schedule: Q04DX003 (ip), vehicle: saline) 99 % of control and 100 % of control and 104 % of control; (dose: 0.62 mg/kg/injection, schedule: Q01DX009 (ip), vehicle: saline) 100 % of control; (dose: 0.63 mg/kg/injection, schedule: Q01DX009 (ip), vehicle: saline) 113 % of control; under setting [1], 120 % of control; (dose: 1.0 mg/kg/injection, schedule: Q04DX003 (ip), vehicle: saline) 103 % of control and 109 % of control. In addition, the T/C runs as follows: (dose: 1.25 mg/kg/injection, schedule: Q01DX009 (ip), vehicle: saline) 100 % of control; (dose: 2.0 mg/kg/injection, schedule: Q04DX003 (ip), vehicle: saline) 106 % of control and 108 % of control (2×); (dose: 4.0 mg/kg/injection, schedule: Q04DX003 (ip), vehicle: saline) 99 % of control and 115 % of control; (dose: 5.0 mg/kg/injection, schedule: Q04DX003 (ip), vehicle: saline) 118 % of control; (dose: 8.0 mg/kg/injection, schedule: Q04DX003 (ip), vehicle: saline) 100 % of control and 112 % of control and 123 % of control; (dose: 10.0 mg/kg/injection, schedule: Q04DX003 (ip), vehicle: saline) 107 % of control. Further, the T/C (dose: 16.0 mg/kg/injection, schedule: Q04DX003 (ip), vehicle: saline) was 123 % of control and the T/C (dose: 20.0 mg/kg/injection, schedule: Q04DX003 (ip), vehicle: saline) is 118 % of control.
